From paper PMC11190208, “Bacterial c-di-GMP triggers metamorphosis of mussel larvae through a STING receptor” (NPJ Biofilms and Microbiomes, 2024) come the findings set out here.

For the experiment, the target named is T1, McSTING (Mytilus coruscus, UniProt A0A7U0FWW1).
T1 construct: gene STING-3; full-length 1-716aa, pColdIII vector, expressed in E. coli Rosetta
Briefly: SPR (OpenSPR, McSTING immobilised on COOH chip). The class given is binding. From the text:
SPR (OpenSPR, McSTING immobilised on COOH chip) on McSTING | concentration-dependent binding of the recombinant protein McSTING to synthetic c-di-GMP with a KD of […]

T1 sequence (A0A7U0FWW1 entry or part of it): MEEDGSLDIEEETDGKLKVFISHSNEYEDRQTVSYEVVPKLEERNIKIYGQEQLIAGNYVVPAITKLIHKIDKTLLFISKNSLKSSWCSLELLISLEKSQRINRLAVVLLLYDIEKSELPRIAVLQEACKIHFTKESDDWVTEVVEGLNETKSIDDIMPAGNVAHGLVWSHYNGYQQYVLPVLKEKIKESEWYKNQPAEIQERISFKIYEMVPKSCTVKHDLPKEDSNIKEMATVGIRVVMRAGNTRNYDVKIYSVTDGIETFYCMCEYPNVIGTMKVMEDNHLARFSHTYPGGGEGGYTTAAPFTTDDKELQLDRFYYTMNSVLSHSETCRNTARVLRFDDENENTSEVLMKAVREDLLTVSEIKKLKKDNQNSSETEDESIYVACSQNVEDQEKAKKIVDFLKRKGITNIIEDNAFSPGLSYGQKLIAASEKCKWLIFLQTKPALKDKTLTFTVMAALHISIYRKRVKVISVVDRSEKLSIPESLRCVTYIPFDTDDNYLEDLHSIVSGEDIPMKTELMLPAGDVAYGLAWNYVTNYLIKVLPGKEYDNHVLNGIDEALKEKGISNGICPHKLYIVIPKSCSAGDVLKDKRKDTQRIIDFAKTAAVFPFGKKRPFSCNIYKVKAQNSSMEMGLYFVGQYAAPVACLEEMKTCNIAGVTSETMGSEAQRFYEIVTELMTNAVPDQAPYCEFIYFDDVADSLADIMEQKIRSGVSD

A word on the Kd: it is a measure of binding affinity in units of concentration. Take `Nc1nc2c(ncn2[C@@H]2O[C@@H]3CO[P@](=O)(O)O[C@H]4[C@@H](O)[C@H](n5cnc6c(=O)[nH]c(N)nc65)O[C@@H]4CO[P@](=O)(O)O[C@H]3[C@H]2O)c(=O)[nH]1` [c-di-GMP]: the Kd was 42.7 µM.
